{"source": "patent US8088791B2", "about": "“Antibacterial agents” (Biots Scientific Management Pty Ltd, priority 2006, dated 2012)", "key": {"Bacillus subtilis 168CA": {"system": "Bacillus subtilis 168CA", "assay": "Minimum Inhibitory Concentration (MIC) testing, broth microdilution, Bacillus subtilis", "assay_type": "cell-based", "conditions": "Bacillus subtilis 168CA; read-out: Bacillus subtilis MICs Activity", "method_in_brief": "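Broth microdilution followed NCCLS M7-A5, in rich broth such as Mueller Hinton, inoculum at OD 0.09 diluted 1:100, compounds in 1.6% DMSO before inoculum. After 16–20 h at 37 °C, MIC was the lowest concentration without visible growth. Score A: ≦8 μg/ml, B: 16–64 μg/ml, C: >64 μg/ml.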"}, "[1]": {"system": "Staphylococcus aureus ATCC29213", "assay": "Minimum Inhibitory Concentration (MIC) testing, broth microdilution, Staphylococcus aureus", "assay_type": "cell-based", "conditions": "Staphylococcus aureus ATCC29213; read-out: Staphylococcus aureus MICs Activity", "method_in_brief": "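Broth microdilution per NCCLS M7-A5 in Mueller Hinton broth, with compound in 1.6% DMSO and inoculum at OD 0.09 diluted 1:100. Plates incubated 16–20 h at 37°C. MIC is the lowest concentration with no visible growth; scored A ≤8, B 16–64, C >64 μg/ml.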"}, "[2]": {"system": "various bacterial species", "assay": "Minimum Inhibitory Concentration (MIC) testing, broth microdilution, other bacterial species", "assay_type": "cell-based", "method_in_brief": "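Broth microdilution per NCCLS M7-A5 in rich broth (e.g. Mueller Hinton), inoculum from OD 0.09 suspension diluted 1:100 in 2× broth. Incubation 16-20 hours at 37° C; turbidity scored visually and spectrophotometrically. MIC is the lowest concentration inhibiting visible growth, binned A ≦8, B 16-64, C >64 micrograms/ml.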"}, "[3]": {"system": "staphylococcal clinical isolates", "assay": "Minimum Inhibitory Concentration (MIC) testing, broth microdilution, staphylococcal clinical isolates", "assay_type": "cell-based", "conditions": "for MIC: read-out: MIC Activity against clinical isolate", "protocol": "Compounds of this invention were tested for antimicrobial activity by susceptibility testing in liquid media. MICs for compounds against each strain were determined by a broth microdilution method according to the National Committee for Clinical Laboratory Standards (NCCLS) guidelines. (NCCLS. 2000. Methods for dilution antimicrobial susceptibility tests for bacteria that grow aerobically—fifth edition. Approved standard M7-A5. NCCLS, Wayne, Pa.)\nBriefly, test compounds are prepared in 100 μl of 1.6% DMSO solution in multiwell plates. Several bacterial colonies from a freshly streaked plate are transferred to an appropriate rich broth, such as Mueller Hinton. The cell suspension is adjusted to an optical density of 0.09 and further diluted 1:100 with warm 2× broth. This cell suspension is dispensed into the wells containing compound solution so that the final volume is 200 μl. The plates are incubated overnight (16-20 hours) at 37° C. and turbidity is scored by eye and quantified spectrophotometrically. The MIC is defined as the lowest concentration inhibiting visible growth.\nSome of the Examples were also tested for activity against staphylococcal clinical isolates. […] Activities were again scored as ‘A’ if the MIC was ≦8 micrograms/ml, ‘B’ if the MIC was 16 to 64 micrograms/ml and ‘C’ if the MIC was greater than 64 micrograms/ml."}, "Staphylococcus aureus": {"system": "Staphylococcus aureus", "assay": "mouse Staphylococcus aureus septicaemia model of infection", "assay_type": "in vivo", "conditions": "survival at day 7 of infected mice; single intraperitoneal dose of 100 mg/kg at 1 hour after intraperitoneal inoculation with a lethal dose of Staphylococcus aureus", "protocol": "Some of the Examples were also tested for activity in a mouse Staphylococcus aureus septicaemia model of infection."}}, "note": "Like-named read-outs stand apart in the source and are kept apart here.", "data": [{"smiles": "NC(=O)c1c(F)ccc(OCc2nc3cc(Cl)ccc3s2)c1F", "note": "[Example 218, 3-[(5-Chloro-1,3-benzothiazol-2-yl)methoxy]-2,6-difluorobenzenecarboxamide]", "values": [{"measurement": "MIC", "setting": "Bacillus subtilis 168CA", "result": "< 8", "unit": "µg/mL"}, {"measurement": "MIC", "setting": "[1]", "result": "< 8", "unit": "µg/mL"}, {"measurement": "MIC", "setting": "[2]; Bacillus cereus, ATCC14579, read-out: MIC Activity Bacillus cereus ATCC 14579", "result": "< 8", "unit": "µg/mL"}, {"measurement": "MIC", "setting": "[2]; Staphylococcus epidermidis, ATCC12228, read-out: MIC Activity Staphylococcus epidermidis ATCC 12228", "result": "< 8", "unit": "µg/mL"}, {"measurement": "MIC", "setting": "[2]; Staphylococcus haemolyticus, ATCC29970, read-out: MIC Activity Staphylococcus haemolyticus ATCC 29970", "result": "< 8", "unit": "µg/mL"}, {"measurement": "MIC", "setting": "[2]; Staphylococcus saprophyticus, ATCC15305, read-out: MIC Activity Staphylococcus saprophyticus ATCC 15305", "result": "< 8", "unit": "µg/mL"}, {"measurement": "MIC Activity against clinical isolate", "setting": "[3]; S. aureus No. 753, Oxacillin S, Hospital", "result": "A (‘A’ if the MIC was ≦8 micrograms/ml)"}, {"measurement": "MIC Activity against clinical isolate", "setting": "[3]; S. aureus No. 757, Oxacillin R, Tet-R, MI-R, Hospital (tetM)", "result": "A (‘A’ if the MIC was ≦8 micrograms/ml)"}, {"measurement": "MIC Activity against clinical isolate", "setting": "[3]; S. aureus No. 1134, Oxacillin S, Hospital", "result": "A (‘A’ if the MIC was ≦8 micrograms/ml)"}, {"measurement": "MIC Activity against clinical isolate", "setting": "[3]; S. aureus No. 1135, Oxacillin R, Van-S, LZD-S, Hospital", "result": "A (‘A’ if the MIC was ≦8 micrograms/ml)"}, {"measurement": "MIC Activity against clinical isolate", "setting": "[3]; S. aureus No. 1651, Oxacillin R, Van-S, LZD-R, Hospital (G2576T, G)", "result": "A (‘A’ if the MIC was ≦8 micrograms/ml)"}, {"measurement": "MIC Activity against clinical isolate", "setting": "[3]; S. aureus No. 1652, Oxacillin R, Van-S, LZD-R, Hospital (T2500T, A)", "result": "A (‘A’ if the MIC was ≦8 micrograms/ml)"}, {"measurement": "MIC Activity against clinical isolate", "setting": "[3]; S. aureus No. 1662, Oxacillin S, Hospital", "result": "A (‘A’ if the MIC was ≦8 micrograms/ml)"}, {"measurement": "MIC Activity against clinical isolate", "setting": "[3]; S. aureus No. 1725, Oxacillin R, Van-S, LZD-R, Hospital (G2576T)", "result": "A (‘A’ if the MIC was ≦8 micrograms/ml)"}, {"measurement": "MIC Activity against clinical isolate", "setting": "[3]; S. aureus No. 1729, Oxacillin R, Tet-R, MI-R, Hospital", "result": "A (‘A’ if the MIC was ≦8 micrograms/ml)"}, {"measurement": "MIC Activity against clinical isolate", "setting": "[3]; S. aureus No. 2011, Oxacillin R, Tet-R, MI-S, Hospital (tetK)", "result": "A (‘A’ if the MIC was ≦8 micrograms/ml)"}, {"measurement": "MIC Activity against clinical isolate", "setting": "[3]; S. aureus No. 2012, Oxacillin R, Van-I, LZD-S, Hospital", "result": "A (‘A’ if the MIC was ≦8 micrograms/ml)"}, {"measurement": "MIC Activity against clinical isolate", "setting": "[3]; S. aureus No. 2018, Oxacillin R, Van-I, LZD-S, Hospital", "result": "A (‘A’ if the MIC was ≦8 micrograms/ml)"}, {"measurement": "MIC Activity against clinical isolate", "setting": "[3]; S. aureus No. 2142, Oxacillin R, CC-S, SXT-S, Community", "result": "A (‘A’ if the MIC was ≦8 micrograms/ml)"}, {"measurement": "MIC Activity against clinical isolate", "setting": "[3]; S. aureus No. 2143, Oxacillin R, Rif-R, Community", "result": "A (‘A’ if the MIC was ≦8 micrograms/ml)"}, {"measurement": "MIC Activity against clinical isolate", "setting": "[3]; S. aureus No. 2147, Oxacillin R, CC-S, SXT-S, Community", "result": "A (‘A’ if the MIC was ≦8 micrograms/ml)"}, {"measurement": "MIC Activity against clinical isolate", "setting": "[3]; S. aureus No. 2149, Oxacillin R, CC-R (iMLS), SXT-S, Community", "result": "A (‘A’ if the MIC was ≦8 micrograms/ml)"}, {"measurement": "MIC Activity against clinical isolate", "setting": "[3]; S. aureus No. 2150, Oxacillin R, CC-R, SXT-S, Community", "result": "A (‘A’ if the MIC was ≦8 micrograms/ml)"}, {"measurement": "MIC Activity against clinical isolate", "setting": "[3]; S. aureus No. 2158, Oxacillin R, CC-R, Doxy-I, Community", "result": "A (‘A’ if the MIC was ≦8 micrograms/ml)"}, {"measurement": "MIC Activity against clinical isolate", "setting": "[3]; S. aureus No. 2175, Oxacillin R, TMP-R, Community", "result": "A (‘A’ if the MIC was ≦8 micrograms/ml)"}, {"measurement": "MIC Activity against clinical isolate", "setting": "[3]; S. epidermidis No. 831, Oxacillin R", "result": "A (‘A’ if the MIC was ≦8 micrograms/ml)"}, {"measurement": "MIC Activity against clinical isolate", "setting": "[3]; S. epidermidis No. 1139, Oxacillin S", "result": "A (‘A’ if the MIC was ≦8 micrograms/ml)"}, {"measurement": "MIC Activity against clinical isolate", "setting": "[3]; S. epidermidis No. 1142, Oxacillin R", "result": "A (‘A’ if the MIC was ≦8 micrograms/ml)"}, {"measurement": "MIC Activity against clinical isolate", "setting": "[3]; S. epidermidis No. 1144, Oxacillin R", "result": "A (‘A’ if the MIC was ≦8 micrograms/ml)"}, {"measurement": "MIC", "setting": "[3]; Staphylococcus aureus, ATCC29213, S. aureus No. 0100, Oxacillin S, ATCC 29213", "result": "< 8", "unit": "µg/mL"}, {"measurement": "MIC", "setting": "[3]; Staphylococcus aureus, S. aureus No. 1015, Oxacillin R, Van-S, LZD-S, Hospital", "result": "< 8", "unit": "µg/mL"}, {"measurement": "MIC", "setting": "[3]; Staphylococcus epidermidis, S. epidermidis No. 835, Oxacillin S", "result": "< 8", "unit": "µg/mL"}, {"measurement": "Percent survival", "setting": "Staphylococcus aureus", "result": 100, "unit": "%"}]}]}
